# Source: patent publication US5624923A, “Tricyclic diazepine vasopressin antagonists and oxytocin antagonists” (priority 1995, dated 1997)
# pIC50: −log10 of the molar value.
# What was measured:
# [1] = target: T1, Rat Kidney Medullary V2 Receptors (Rattus norvegicus, UniProt Q00788); test: Binding Assay to Rat Kidney Medullary V2 Receptors; settings: rat kidney medulla membranes; read-out: V2 IC50
# T1 construct: Medullary tissues from rat kidneys are dissected out; from tissue; host or cells: rat kidney medulla membranes
# Procedure, shortened: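 IC50 derived from competition curves; bound tritium counted by liquid scintillation after filtration. Rat medullary kidney membranes (Tris-HCl pH 7.4, BSA, PMSF) were incubated 120 min to equilibrium with radioligand and test compound (added in 50% DMSO). Nonspecific binding: 1.0 μM unlabeled ligand.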
# Vasopressin V1 = Vasopressin V1 Antagonist Activity in Conscious Rats (vasopressin vasopressor response); type: in vivo, rat
# Procedure, shortened: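 Conscious rats are restrained supine, and under local 2% procaine a PE 10/20 cannula is passed through the ventral caudal tail artery into the lower abdominal aorta. The caudal vein is cannulated for intravenous dosing. Blood pressure is recorded with a Statham P23Db transducer, and vasopressin injections are repeated after compound dosing. Percent antagonism is calculated against the pre-drug vasopressor response taken as 100%.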
# T1 sequence (Q00788 whole entry): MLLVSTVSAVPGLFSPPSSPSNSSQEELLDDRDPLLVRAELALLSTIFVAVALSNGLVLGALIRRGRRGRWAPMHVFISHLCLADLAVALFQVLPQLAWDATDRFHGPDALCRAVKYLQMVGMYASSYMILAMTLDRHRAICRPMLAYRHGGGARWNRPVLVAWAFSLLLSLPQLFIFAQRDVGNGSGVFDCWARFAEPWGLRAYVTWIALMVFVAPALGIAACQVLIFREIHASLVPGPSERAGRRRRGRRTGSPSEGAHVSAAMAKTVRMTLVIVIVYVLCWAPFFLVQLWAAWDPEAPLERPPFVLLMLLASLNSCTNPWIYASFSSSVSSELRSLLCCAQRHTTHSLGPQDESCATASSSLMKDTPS
Compound,pIC50 [1],Max. % Inhibition (Vasopressin V1; 10 mg/kg i.v.),Time (of max. % inhibition) (Vasopressin V1; 10 mg/kg i.v.),Max. % Inhibition (Vasopressin V1; 10 mg/kg p.o.),Time (of max. % inhibition) (Vasopressin V1; 10 mg/kg p.o.),Max. % Inhibition (Vasopressin V1; 30 mg/kg i.v.),Time (of max. % inhibition) (Vasopressin V1; 30 mg/kg i.v.),Max. % Inhibition (Vasopressin V1; 30 mg/kg p.o.),Time (of max. % inhibition) (Vasopressin V1; 30 mg/kg p.o.)
"O=C(Nc1ccc(C(=O)N2Cc3cccn3Cc3ccccc32)cc1)c1cccc(C(F)(F)F)c1 [Example 474, N-[4-(5H-pyrrolo[2,1-c][1,4]benzodiazepin-10(11H)-ylcarbonyl)phenyl]-3-(trifluoromethyl)benzamide]",7.42,,,,,80%,60 min,,
"Cc1ccc(F)cc1C(=O)Nc1ccc(C(=O)N2Cc3cccn3Cc3ccccc32)c(Cl)c1 [Example 482, N-[4-(5H-pyrrolo[2,1-c][1,4]benzodiazepin-10(11H)-ylcarbony)-3-chlorophenyl]-5-fluoro-2-methylbenzamide]",8.64,40%,60 min,,,,,,
"O=C(Nc1ccc(C(=O)N2Cc3cccn3Cc3ccccc32)cc1)C(O)c1ccccc1 (racemic) [Example 588, (±) α-Hydroxy-N-[4-(5H-pyrrolo[2,1c][1,4]benzodiazepin-10(11H)-ylcarbonyl)phenyl]benzeneacetamide]",7.92,65%,90 min,,,,,80%,120 min

# More lines, in order of rising pIC50 [1], values ahead:
pIC50 [1],Compound,Max. % Inhibition (Vasopressin V1; 10 mg/kg i.v.),Time (of max. % inhibition) (Vasopressin V1; 10 mg/kg i.v.),Max. % Inhibition (Vasopressin V1; 10 mg/kg p.o.),Time (of max. % inhibition) (Vasopressin V1; 10 mg/kg p.o.),Max. % Inhibition (Vasopressin V1; 30 mg/kg i.v.),Time (of max. % inhibition) (Vasopressin V1; 30 mg/kg i.v.),Max. % Inhibition (Vasopressin V1; 30 mg/kg p.o.),Time (of max. % inhibition) (Vasopressin V1; 30 mg/kg p.o.)
7.08,NC(=O)CNC(C(=O)Nc1ccc(C(=O)N2Cc3cccn3Cc3ccccc32)cc1)c1ccccc1 (stereo not shown) [Example 585],56%,30 min,,,,,,
7.38,COC(=O)c1ccc2n1Cc1ccccc1N(C(=O)c1ccc(NC(=O)c3ccc(Cl)cc3Cl)cc1)C2 [Example 593],,,,,67%,60 min,,
7.80,"Cc1ccccc1C(=O)Nc1ccc(C(=O)N2Cc3ccnn3Cc3ccccc32)cc1 [Example 210, N-[4-(4H-Pyrazolo[5,1-c][1,4]benzodiazepin-5(10H)-ylcarbonyl)phenyl]-2-methylbenzamide]",78%,90 min,,,,,,
8.08,O=C(Nc1ccc(C(=O)N2Cc3cccn3Cc3ccccc32)c(Cl)c1)c1ccc(Cl)cc1Cl [Example 471],,,,,85%,90 min,,
8.30,"CN(C)CN(C(=O)c1ccc(Cl)cc1Cl)c1ccc(C(=O)N2Cc3cccn3Cc3ccccc32)cc1 [Example 490, N-[(Dimethylamino)methyl]-N-[4-(5H-pyrrolo[2,1-c][1,4]benzodiazepin-10(11H)-ylcarbonyl)phenyl]-2,4-dichlorobenzamide]",74%,90 min,65%,120 min,,,,
